# Target: Csm6 (Mtb Csm6) (Mycobacterium tuberculosis, UniProt P71635)
# Sequence (P71635 34-415): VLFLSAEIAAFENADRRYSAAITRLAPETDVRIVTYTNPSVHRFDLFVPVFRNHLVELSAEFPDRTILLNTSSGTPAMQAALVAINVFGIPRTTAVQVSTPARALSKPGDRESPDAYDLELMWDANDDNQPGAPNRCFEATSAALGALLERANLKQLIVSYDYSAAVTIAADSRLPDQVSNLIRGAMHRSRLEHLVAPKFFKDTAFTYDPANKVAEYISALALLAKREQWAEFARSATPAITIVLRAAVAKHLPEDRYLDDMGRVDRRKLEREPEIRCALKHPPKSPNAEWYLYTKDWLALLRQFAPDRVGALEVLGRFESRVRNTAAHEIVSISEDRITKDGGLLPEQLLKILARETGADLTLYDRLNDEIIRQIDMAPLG
smiles,measurement,value
"Nc1ncnc2c1ncn2[C@@H]1O[C@@H]2COP(=O)(O)O[C@H]3[C@@H](O)[C@H](n4cnc5c(N)ncnc54)O[C@@H]3COP(=O)(O)O[C@H]3[C@@H](O)[C@H](n4cnc5c(N)ncnc54)O[C@@H]3COP(=O)(O)O[C@H]3[C@@H](O)[C@H](n4cnc5c(N)ncnc54)O[C@@H]3COP(=O)(O)O[C@H]3[C@@H](O)[C@H](n4cnc5c(N)ncnc54)O[C@@H]3COP(=O)(O)O[C@H]3[C@@H](O)[C@H](n4cnc5c(N)ncnc54)O[C@@H]3COP(=O)(O)O[C@H]2[C@H]1O [cA6, cyclic hexa-adenylate]",gel-based cleavage assay of Cy5-labelled 24 nt ssRNA,the presence of cA6 significantly enhances the nuclease activity of Csm6

# — publication PMC12214007, “CARF-dependent preferential RNA cleavage by Csm6 increases drug susceptibility of mycobacteria” (Nucleic Acids Research, 2025)
